# Results published in patent publication US6809175B1, “Cadherin derived growth factor and its use” (Prof. Dr. Wolf-Georg Forssmann, priority 1997, dated 2004).
# Tests used:
# MAP kinase = test: Western blot detection of intracellular MAP kinase in primary osteoblasts; assay type: cell-based, rat; conditions: primary osteoblasts incubated for different periods of time; FIG. 7
# Procedure: As already shown under Example 5, intracellular calcium release can be induced on primary osteoblasts by incubation with CDGF. To further characterize this physiological response, the further intracellular signal pathway (downstream from calcium) was examined. One possible signal transduction cascade is the activation of MAP kinase, an enzyme which plays an essential role in the signal transduction from the cytoplasm into the nucleus. Signal transmission involves phosphorylation of the enzyme which can be detected with a specific antibody. Thus, this protein can be detected in a Western blot, which is a measure of both the phosphorylation and the expression due to the stimulus. Primary osteoblasts were incubated with cadherin or controls (FCS) for different periods of time. Expression of the enzyme (MAP kinase) in the cell was detected in the Western blot by the addition of the antibody. The results are represented in FIG. 7. […] The longer the stimulation with OB-CDGF, the more clearly could the band be discerned. […] Therefrom, it can be concluded that CDGF acts through calcium in a receptor-mediated way, and the further signal processing proceeds via MAP kinase.
# primary osteoblasts [1] = test: Proliferation assay on primary osteoblasts ([3H]thymidine or BrdU incorporation); assay type: cell-based; conditions: primary osteoblasts from fetal rat calvarias; serum-free medium with 1 mg/ml BSA; established for both native and synthetic peptide
# Procedure: The isolation of OB-CDGF was based on its biological activity in a proliferation assay of the primary osteoblasts. Thus, aliquots of each of the individual chromatographic stages described under Example 1 were freeze-dried and then subjected to a biological assay. The fractions which gave a positive signal were respectively subjected to further purification.
# The assay measures the proliferation of the cells after having been kept in serum-free medium with 1 mg/ml bovine serum albumin, adding the samples and determining the incorporation of [^3H]thymidine or bromode-oxyuranosine (Brdu) after a further 48 hours. As a positive control, factors promoting bone growth, such as IGF or angiotensin, or fetal calf serum (FCS) are employed.
# The experiments were performed by analogy with Pfeilschifter et al., Endocrinology 126, 703, 1990.
# The recovery of primary osteoblasts was effected by sequential digestive separation from fetal rat calvarias using collagenase to obtain 5 cell fractions. The pooled cell fractions 3-5 were cultured in vitro. […]
# At the end of the incubation time, the cell cultures were washed three times with 0.9% saline, and then 100 μl of liquid scintillator (OptiPhase Super-mix®, Wallac) was added to each well. Subsequently, the radioactivity incorporated in the DNA was measured in a liquid scintillation counter (1450 MicroBeta®, Wallac) in cpm. […]
# [2] = system: neonatal rat osteoblast monolayers; test: Binding assay of 125I-labeled OB-CDGF to osteoblasts; conditions: confluent layers and extracellular matrix of neonatal rat osteoblasts; 2 hours at 4° C.; FIG. 5
# Procedure: The binding of the osteoproliferative peptides to neonatal rat osteoblast monolayers was effected with the use of ^125j-labeled peptides. Chloramine T was used for iodination. The specific activity of the peptides was 100,000 cpm/ng. The binding studies were performed on confluent layers and the extracellular matrix of a first passage of neonatal rat osteoblasts. The cells were incubated for 24 hours in serum-containing medium and then washed four times with PBS and incubated for 2 hoursat 4° C. in 250 μl of the assay buffer (20 mM HEPES, 0.1 mg/ml BSA, pH 7.0) with 80,000 cpm of the iodine-labeled peptide in the presence of different concentrations of the unlabeled peptide. The incubation buffer was then removed, and the cells washed four times with cold PBS and solubilized with 1 M NaOH. The cell-bound activity was determined using a gamma counter. The corresponding experimental results are represented in FIG. 5.
# primary osteoblasts [3] = test: Intracellular calcium release in primary osteoblasts (Fura-2); assay type: cell-based, rat; conditions: single primary osteoblasts, Fura-2, fluorescence microscope; FIG. 6
# Procedure: The intracellular signal chain for calcium^2+is measured on individual osteoblast cells. The intracellular Ca^2+activity of primary osteoblasts is measured with the Ca^2+-sensitive dye Fura-2 (Calbiochem, Bad Soden, Germany). The primary osteoblasts are cultured for one to three days on glass supports (diameter 30 mm) attached to a perfusion chamber of an inverted microscope (Axiomat IDC-UV, Zeiss, Gottingen, Germany). […]
# The incubation is followed by an equilibration period of 10 to 15 min in which the cells are washed with KHB solution at 37° C. with a perfusion rate of about 5 ml/min. The Fura-2-charged primary osteoblasts are measured at 340, 360 and 380 nm with a high speed filter wheel (rotational speed 10 Hertz), a single-photon counter tube (Hamamatsu, Herrsching, Germany) and a xenon quartz lamp (XBO 75 W/OFR, Zeiss, Germany) as a light/impulse source. The Fura-2 emission is measured through a long-wave filter at 510 nm with an Ultrafluar 125 ×glycerol immersion lens. […] The ratio of photon emissions upon excitation at 340 and 380 nm is evaluated. […] The raw data are calculated, and 10 neighboring data points are averaged to obtain a time resolution of 1 Hz. The fluorescence at 360 nm is used to test calcium activity. All samples are dissolved in a phosphate buffer prior to the experiment and measured for at least 1 to 2 minutes. […]
# [4] = system: primary cultures of neurons from spinal ganglia of chicken embryos; test: Survival-promoting effect on primary nerve cell cultures (cellular LDH level); assay type: cell-based; conditions: neurons from spinal ganglia of chicken embryos (E10); cellular LDH level after 48 hours
# Procedure: Primary Nerve Cell Cultures From Spinal Ganglia of Chicken Embryos (Embryo-Onal Development E10)
# The preparation and cultivation is performed as described by Borasio G. D., John J., Wittinghofer A., Barde Y.-A., Sendtner M., Heumann R. (1989), Neuron 2, 1087-1096. To determine survival-promoting effects of active substances, determination of the cellular LDH level after an incubation time of 48 hours is employed. To this end, the culture medium is removed by tapping out the plate. Only the vital cells remain adhered to the bottom of the plate and can then be determined. To determine the LDH level, the LDH cytotoxicity test kit of Boehringer Mannheim (BM) is employed.
# The cultures were used in duplicate in 96-well microtitration plates. On each plate, an NGF calibration curve is established in parallel, and the biological activity of the substances is expressed in pg/ml of NGF equivalents. As a low-molecular weight reference, the starurosporin derivative K252a is used in a parallel test in a concentration of 300 nmol/l.
Sequence,expression of intracellular MAP kinase (Western blot band) (MAP kinase),growth-promoting effect on primary osteoblasts (proliferation) (primary osteoblasts [1]),displacement of labeled OB-CDGF by unlabeled OB-CDGF (specific binding) [2],intracellular calcium concentration (primary osteoblasts [3]),survival-promoting effect on primary neurons [4]
"ERRGHLRPSFHGHHEKGKEGQVLQRS (listed as Homo sapiens) [OB-CDGF, peptide purified from human hemofiltrate and resynthesized; human cadherin-11 precursor propeptide, amino acids 26-51]",leads to expression of intracellular MAP kinase,dose-dependent growth-promoting effect,the level of specifically bound labeled OB-CDGF is reduced,intracellular calcium concentration increases,–
"QPQPQQTLATEPRENVIHLPGQRSHFQRV (listed as Homo sapiens) [BR-CDGF, peptide corresponding to the CDGF region of cadherin-12 (BR-cadherin; N-cadherin-2)]",–,–,–,–,survival-promoting effect on these primary neurons in a concentration-dependent way
"TLSTPLSKRTSGFPAKKRALELSGNSKNELNRS (listed as Homo sapiens) [CAD6-CDGF, peptide corresponding to the CDGF region of cadherin-6]",–,–,–,–,survival-promoting effect on these primary neurons in a concentration-dependent way
